The values below come from patent publication US10689306B2, “Fertilizer composition and methods of making and using same” (SABIC GLOBAL TECHNOLOGIES B.V., priority 2015, dated 2020).

The conditions of series [1]: hot climatic region; cited from earlier work.
The nature of series [2]: Thermal stability of NBTPT at urea melt temperature by HPLC. In kind it is physicochemical. As to conditions: 133-135° C., over time. On the procedure: The percentage of intact NBTPT in the sample is shown in each chromatogram.
Certain fertilizer additives can be unstable and decompose at elevated temperatures. In a conventional manufacturing process, a fertilizer additive is directly exposed to the temperature of a urea melt, which is typically 133-135° C., during the granulation process. […] Accordingly, at least a portion of NBTPT is lost by using conventional methods.
The fertilizers and methods disclosed herein protect the fertilizer additive from being directly exposed to the temperature of a urea melt during the manufacturing process. The fertilizer core particle of the fertilizer comprises a binder, which protects the fertilizer additive from being directly exposed to the urea melt and the temperature of the urea melt. As such, the fertilizer additive is protected from the elevated temperature and is less likely to decompose. […] Thus, the fertilizers and methods disclosed herein prevent loss of a fertilizer additive, such as, for example, without limitation, an inhibitor, for example NBTPT, during the manufacturing process.
The thermal stability of neat NBTPT and NBTPT contained within a core, as disclosed herein, can be determined by HPLC. […] (133-135° C. is the typical temperature range of a urea melt) and can continuously be analyzed by HPLC every 5 min, until data for 30 min was collected. […]

For series [3] the following is noted: cited from earlier work.
Series [4] in a line: Nitrogen loss after 17 days of exposure to Upland Crowley Soil (IFDC). On the procedure: The nitrogen volatilization was measured in different soils for several samples and compared to products on the market, such as Agrotain®, ESN®, and SuperU®. The samples were tested in Greenville soil, Crowley soil, and Brownfield Soil.
Crowley soil consists of very deep, somewhat poorly drained, very slowly permeable soils that formed in clayey fluviomarine deposits of the Pleistocene age. The soil exist in nearly level to very gently sloping soils and occur on flat coastal plains terraces. The slope is dominantly less than 1 percent but ranges to up to 3 percent. The mean annual precipitation is about 1549 mm (61 in), and the mean annual air temperature is about 20 degrees c. (68 degrees F.), where the soil is found. The soil is fine, smectitic, and thermic Typic Albaqualfs.

For the compound `N#CN=C(N)N` [DCD, dicyandiamide], in series [1], the “thermal stability in the soil” value is “thermal instability”.
For `CCCCNP(N)(N)=S` [NBTPT, N-(n-butyl) thiophosphoric triamide], the “thermal stability of neat NBTPT” value in series [2] (neat, FIG. 13) is “decomposes”. Further, the “thermal stability of NBTPT within a fertilizer core particle” value in series [2] (within a core, FIG. 14) is “stable over time and does not decompose”. For the same compound, the “stability under acidic pH” value in series [3] is “unstable”.
For `NC(N)=O` [Urea, urea], in series [4] (17 days of exposure to Upland Crowley Soil), the “Cumulative Nitrogen Loss (mg) by 17 Days” value was found to be 299.08 mg. Also, the “% Urea” value in series [4] (nitrogen loss relative to urea (100), 17 days, Upland Crowley Soil) is 100%. Besides, in series [4] (versus urea, 17 days, Upland Crowley Soil), the “% Reduction in Nitrogen Loss” value stood at 0%.
